The record followed here is ChEMBL document CHEMBL5154733, “Targeting NLRP3 signaling by a novel-designed sulfonylurea compound for inhibition of microglial inflammation” (Bioorg Med Chem, 2022).

Molecules are shown by their SMILES. Calls of active or inactive are those of the source. The calls are words filed in the database; no cut-off is given here.

In data set [1] the test system is N9. Kind of data set: Inhibition of LPS-induced of NLRP3 expression in mouse N9 cells at 0.7 to 2.8 uM incubated for 24 hrs dosed 24 hrs after LPS stimulation by Quantitative PCR assay. It counts as functional. The conditions noted are these: dose 0.7-2.8 µM, DDE = dose-dependent effect.
Data set [2] is described as follows: Inhibition of LPS-induced of NLRP3 expression in mouse N9 cells assessed as NLRP3 expression level at 0.7 uM incubated for 24 hrs dosed 24 hrs after LPS stimulation by Quantitative PCR assay. It counts as functional. More on the design: scale not given: the % may be the effect or the level left.
Data set [3] in a line: Inhibition of LPS-induced of NLRP3 expression in mouse N9 cells assessed as NLRP3 expression level at 1.4 uM incubated for 24 hrs dosed 24 hrs after LPS stimulation by Quantitative PCR assay. More on the design: scale not given: the % may be the effect or the level left. It counts as functional.
A short description of data set [4]: Inhibition of LPS-induced of NLRP3 expression in mouse N9 cells assessed as NLRP3 expression level at 2.8 uM incubated for 24 hrs dosed 24 hrs after LPS stimulation by Quantitative PCR assay. It counts as functional. More on the design: scale not given: the % may be the effect or the level left.
Data set [5] has as its system N9. Briefly: Inhibition of LPS-induced of NLRP3 expression in mouse N9 cells at 2.8 uM incubated for 24 hrs dosed 24 hrs after LPS stimulation by Western blot. The format is functional.
The test system of data set [6] is N9. Briefly: Inhibition of LPS-induced of iNOS expression in mouse N9 cells at 2.8 uM incubated for 24 hrs dosed 24 hrs after LPS stimulation by Western blot. It counts as functional.
The subject of data set [7] is N9. Briefly: Inhibition of LPS-induced of nitric oxide production in mouse N9 cells at 2.8 uM incubated for 24 hrs dosed 24 hrs after LPS stimulation by DAF-FM dye based fluorescence assay. It counts as functional.
Data set [8] in a line: Toxicity in mouse N9 cells assessed as effect on cell viability at 0.35 to 5.6 uM incubated for 24 hrs by MTT assay. It counts as cell-based. The conditions noted are these: n9, 24 h, dose 0.35-5.6 µM.
Data set [9] deals with N9. Briefly: Inhibition of LPS-induced Caspase-1 expression in mouse N9 cells at 2.8 uM incubated for 24 hrs dosed 24 hrs after LPS stimulation by FLICA 660 Caspase-1 assay. The format is functional.
Data set [10] is described as follows: Inhibition of LPS-induced of IL-1beta expression in mouse N9 cells assessed as relative IL-1beta expression at 2.8 uM incubated for 24 hrs dosed 24 hrs after LPS stimulation by Quantitative PCR assay (reference value: 7 fold). It counts as functional.
Data set [11] in a line: Inhibition of LPS-induced of IL-1beta expression in mouse N9 cells assessed as IL-1beta level at 2.8 uM incubated for 24 hrs dosed 24 hrs after LPS stimulation by ELISA (reference value: 100 pg/ml). It counts as functional.
In data set [12] the test system is N9. Briefly: Inhibition of LPS-induced of TNF-alpha expression in mouse N9 cells at 2.8 uM incubated for 24 hrs dosed 24 hrs after LPS stimulation by ELISA. The format is functional.
The test system of data set [13] is N9. Kind of data set: Inhibition of LPS-induced of phagocytosis in mouse N9 cells assessed as decrease in intracellular FAM-Abeta42 fluorescent intensity at 2.8 uM incubated for 24 hrs dosed 24 hrs after LPS stimulation by FAM-labeled fluorescent Abeta-42 peptide based fluorescence assay. The format is functional.
For data set [14], the system named is N9. Kind of data set: Inhibition of LPS-induced of phagocytosis in mouse N9 cells assessed as decrease in FAM positive cell number at 2.8 uM incubated for 24 hrs dosed 24 hrs after LPS stimulation by FAM-labeled fluorescent Abeta-42 peptide based fluorescence assay. It counts as functional.
Data set [15] in a line: Stabilization of microglia morphology in mouse N9 cells assessed as resting morphology level at 2.8 uM incubated for 24 hrs dosed 24 hrs after LPS stimulation by (reference value: 18%). The format is functional.
In data set [16] the test system is Brain. Briefly: Suppression of microglia activation in C57BL/6 mouse brain assessed as maintenance of microglia morphology by measuring Iba1 positive cells in cerebral cortex area at 55 mg/kg, ip by immunofluorescence staining. The format is functional, organism-based.
Data set [17] concerns Brain. Briefly: Suppression of microglia activation in C57BL/6 mouse brain assessed as maintenance of microglia morphology by measuring Iba1 positive cell number in cerebral cortex positive cells in cerebral cortex area at 55 mg/kg, ip by immunofluorescence staining. It counts as functional, organism-based.

On to `O=C1N(c2cncnc2)CCCN1S(=O)(=O)c1ccc(C(F)(F)F)cc1`, for which, in data set [1], the inhibition result is “Dde”. For the same compound, the Activity is 370% in [2]; 220% in data set [3]; 100% in data set [4]; “Non-Toxic” in [8]; 70 pg/mL in [11]; 65% in data set [15]. Further, the inhibition result in data set [5], in data set [6], in data set [7], in [9], in data set [12] and in [13] was “Active” each time. Further, the inhibition result in data set [14] was “Active”. For the same compound, the “fold change (FC)” value in [10] was found to be 2. Further, the result in data set [16] and in data set [17] was Active.
